Key:
[1] = 15:1 L-dopa 4′-monophosphate/carbidopa 4′-monophosphate 16-hour SC infusion in mini-pigs; settings: 15:1, 48/3.2 mg/kg
Method: In this study, the pig received a 16-hour subcutaneous infusion of a combination of the L-dopa 4′-monophosphate and the carbidopa 4′-monophosphate together in an aqueous solution at a dose ratio of 15:1 without an initial bolus dose. The doses were 48/3.2 mg/kg for L-dopa 4′-monophosphate and the carbidopa 4′-monophosphate, respectively.

[2] = In vitro bioconversion study, human liver microsomes; format: in vitro ADME; settings: human liver microsomes 1 mg/mL, prodrug 2.5 μg/mL, 37° C.
Method: (§2) The in vitro bioconversion of the L-dopa phosphate prodrugs to L-dopa and the carbidopa phosphate prodrugs to carbidopa was evaluated in several studies. In brief, the L-dopa and carbidopa phosphate prodrugs (2.5 μg/mL) were incubated with tissue homogenate or fractions from rats, mini-pigs, or human, including blood, skin homogenate (3 mg/mL), liver microsomes (1 mg/mL), liver S9 fraction (1 mg/mL), kidney S9 fraction (1 mg/mL), and intestine S9 fractions (1 mg/mL). The reaction mixtures were incubated at 37° C. for 5 to 6 time points within 1 to 2 hours. At the end of each time point, the reaction mixtures were quenched by 2 to 3 volumes of 5% trichloroacetic acid in water. After quenching, the mixtures were centrifuged at 3000 rpm for 20 minutes, and the supernatants were analyzed by LC-MS for quantitation of the prodrug, L-dopa or carbidopa. The in vitro bioconversion was assessed by monitoring both time-dependent depletion of the prodrug and the formation of the corresponding L-dopa or carbidopa.

[3] = In vitro bioconversion study (skin homogenates), human; settings: human skin homogenate 3 mg/mL, prodrug 2.5 μg/mL, 37° C.
[4] = 1-Day stability study of prodrugs in aqueous solution; format: physicochemical; settings: aqueous solution 80 μg/mL, ambient storage
Method: The L-dopa phosphate prodrugs and the carbidopa phosphate prodrugs were evaluated in a stability study.

[5] = In vitro bioconversion study, kidney S9 fraction, rat; format: in vitro ADME; settings: rat kidney S9 fraction 1 mg/mL, prodrug 2.5 μg/mL, 37° C.
Method: as §2

[6] = 7-Day stability study, 4′ monophosphate combination solution; format: physicochemical; settings: combination solution: L-dopa 4′-monophosphate 200 mg/mL + carbidopa 4′-monophosphate 50 mg/mL, pH 7.4, room temperature
Method: In addition, a solution combining the L-dopa 4′-monophosphate at 200 mg/mL and carbidopa 4′-monophosphate at 50 mg/mL was monitored over 7 days at room temperature. These samples were prepared with and without purging with nitrogen to remove oxygen.

[7] = In vitro bioconversion study, liver S9 fraction, mini-pig; format: in vitro ADME; settings: mini-pig liver S9 fraction 1 mg/mL, prodrug 2.5 μg/mL, 37° C.
Method: as §2

[8] = Phosphate prodrug solubility study in water; format: physicochemical; settings: for solubility compared to L-dopa and carbidopa (FIG. 1): pH of 7.4
Method: The L-dopa phosphate prodrugs and the carbidopa phosphate prodrugs were evaluated in a solubility study. The solubility values of the phosphate prodrugs in water under ambient conditions were determined by visual assessment. Table 13-A reports the results of the study, including the measured values for L-dopa and carbidopa.

[9] = In vitro bioconversion study, kidney S9 fraction, human; format: in vitro ADME; settings: human kidney S9 fraction 1 mg/mL, prodrug 2.5 μg/mL, 37° C.
Method: as §2

[10] = In vitro bioconversion study, liver S9 fraction, human; format: in vitro ADME; settings: human liver S9 fraction 1 mg/mL, prodrug 2.5 μg/mL, 37° C.
Method: as §2

[11] = In vitro bioconversion study (skin homogenates), mini-pig; settings: mini-pig skin homogenate 3 mg/mL, prodrug 2.5 μg/mL, 37° C.
[12] = L-dopa 4′-monophosphate/carbidopa 4′-monophosphate 4:1, 16-hour subcutaneous infusion in rats; format: in vivo; settings: 4:1, SC bolus 60/14 mg/kg then infusion 300/71 mg/kg
Method: After 1.5 hours, the combination was dosed again via continuous infusion at a dose of 300/71 mg/kg over next 14.5 hours. Blood samples were collected at […], 0.25, 1, 6, 16, and 24 hours post dose. […] FIG. 7 provides a time-concentration profile for L-dopa and L-dopa 4′-monophosphate blood levels after administration of the combination of 4′-monophosphate prodrugs at a 4:1 ratio. […] Steady state concentration of ˜1 μg/mL was maintained over the infusion period for carbidopa. […] FIG. 9 provides a time-concentration profile for carbidopa and carbidopa 4′-monophosphate blood levels after administration of the combination of 4′-monophosphate prodrugs at a 4:1 ratio.

[13] = In vitro bioconversion study, liver S9 fraction, rat; format: in vitro ADME; settings: rat liver S9 fraction 1 mg/mL, prodrug 2.5 μg/mL, 37° C.
Method: as §2

[14] = for CLp (plasma clearance), Value / SC F (subcutaneous bioavailability), Value: human; for Bioconversion ratio (prodrug to active drug), Value: projected for human, mean of ratios observed in preclinical animals
[15] = In vitro bioconversion study (blood), rat; settings: prodrug 2.5 μg/mL, 37° C.
Method: The in vitro bioconversion of the L-dopa phosphate prodrugs to L-dopa and the carbidopa phosphate prodrugs to carbidopa was evaluated in several studies. […] The reaction mixtures were incubated at 37° C. for 5 to 6 time points within 1 to 2 hours. At the end of each time point, the reaction mixtures were quenched by 2 to 3 volumes of 5% trichloroacetic acid in water. After quenching, the mixtures were centrifuged at 3000 rpm for 20 minutes, and the supernatants were analyzed by LC-MS for quantitation of the prodrug, L-dopa or carbidopa. The in vitro bioconversion was assessed by monitoring both time-dependent depletion of the prodrug and the formation of the corresponding L-dopa or carbidopa.

[16] = In vitro bioconversion study (intestinal S9 fractions), human; format: in vitro ADME; settings: human intestinal S9 fraction 1 mg/mL, prodrug 2.5 μg/mL, 37° C.
Description: (§1) The t1/2 appeared to be shorter in human intestinal S9 than in rat intestinal S9.

[17] = In vitro bioconversion study (intestinal S9 fractions), rat; format: in vitro ADME; settings: rat intestinal S9 fraction 1 mg/mL, prodrug 2.5 μg/mL, 37° C.
Description: as §1

[18] = 1-Day stability study, diphosphate combination solution; format: physicochemical; settings: combination solution: L-dopa 3′,4′-diphosphate 35 mg/mL + carbidopa 3′,4′-diphosphate 8.7 mg/mL, pH 6.2, room temperature, nitrogen purged
Method: In addition, a solution combining the diphosphates of each compound (L-dopa 3′, 4′-diphosphate at 35 mg/mL and carbidopa 3′, 4′-diphosphate at 8.7 mg/mL) was monitored over one day at room temperature. This sample was purged with nitrogen to remove oxygen.

[19] = In vitro bioconversion study (blood), human; format: in vitro ADME; settings: prodrug 2.5 μg/mL, 37° C.
Method: as §2

[20] = In vitro bioconversion study (skin homogenates), rat; settings: rat skin homogenate 3 mg/mL, prodrug 2.5 μg/mL, 37° C.
[21] = In vitro bioconversion study (blood), mini-pig; format: in vitro ADME; settings: prodrug 2.5 μg/mL, 37° C.
Method: as §2

[22] = listed as 4′-phosphate prodrug of carbidopa
[23] = listed as 3′,4′-diphosphate prodrug of carbidopa
[24] = listed as diphosphate prodrug of carbidopa
[25] = listed as 4′-phosphate prodrug of L-dopa

| Structure (SMILES) | stability and formation of L-dopa or carbidopa [2] | L-Dopa or Carbidopa Formation [3] | % Remaining After One Day ([4]; pH 6.8) | stability and formation of L-dopa or carbidopa [5] | % Remaining After 7 Days ([6]; Nitrogen Purged) | % Remaining After 7 Days ([6]; Non-Purged) | stability and formation of L-dopa or carbidopa [7] | solubility compared to L-dopa and carbidopa (FIG. 1) [8] | stability and formation of L-dopa or carbidopa [9] | stability and formation of L-dopa or carbidopa [10] | L-Dopa or Carbidopa Formation [11] | stability and formation of L-dopa or carbidopa [13] | CLp (plasma clearance), Value [14] | SC F (subcutaneous bioavailability), Value [14] | Bioconversion ratio (prodrug to active drug), Value [14] | L-Dopa or Carbidopa Formation [15] | L-Dopa or Carbidopa Formation [16] | L-Dopa or Carbidopa Formation [17] | other results |
| --- | --- | --- | --- | --- | --- | --- | --- | --- | --- | --- | --- | --- | --- | --- | --- | --- | --- | --- | --- |
| C[C@@](Cc1ccc(OP(=O)(O)O)c(O)c1)(NN)C(=O)O [Carbidopa 4′-phosphate, Carbidopa 4′-monophosphate] | stable without formation of L-dopa or carbidopa observed | Yes | >98% | stable without formation of L-dopa or carbidopa observed | >99% | >97% | stable without formation of L-dopa or carbidopa observed | increased solubility | stable without formation of L-dopa or carbidopa observed | stable without formation of L-dopa or carbidopa observed | Yes | stable without formation of L-dopa or carbidopa observed | 141 L/h | 0.65 | 0.7 | Yes | Yes | Yes | exposure of remaining carbidopa 4′-monophosphate as % of the carbidopa exposure [1]: ~22%; exposure of remaining carbidopa 4′-monophosphate as % of carbidopa [12]: ~8%; T1/2 [16, 22]: rapidly dephosphorylated; T1/2 [17, 22]: rapidly dephosphorylated |
| C[C@@](Cc1ccc(OP(=O)(O)O)c(OP(=O)(O)O)c1)(NN)C(=O)O [Carbidopa 3′,4′-diphosphate] | stable without formation of L-dopa or carbidopa observed | No | >97% | stable without formation of L-dopa or carbidopa observed |  |  | stable without formation of L-dopa or carbidopa observed |  | stable without formation of L-dopa or carbidopa observed | stable without formation of L-dopa or carbidopa observed | No | stable without formation of L-dopa or carbidopa observed |  |  |  | Yes | Yes | Yes | T1/2 [3]: stable; % Remaining After One Day [18]: >99%; Solubility ([8]; water, ambient, visual assessment, pH 5.5, Amorphous): >247 mg/mL; L-Dopa or Carbidopa Formation [19]: No; T1/2 [19, 23]: stable; T1/2 [19, 24]: not dephosphorylated; L-Dopa or Carbidopa Formation [20]: No; T1/2 [20]: stable; T1/2 [11]: stable; L-Dopa or Carbidopa Formation [21]: No; T1/2 [21, 23]: stable; T1/2 [21, 24]: not dephosphorylated; T1/2 [15]: 53 min; T1/2 [16, 24]: rapidly dephosphorylated; T1/2 [17, 24]: rapidly dephosphorylated |
| N[C@@H](Cc1ccc(OP(=O)(O)O)c(O)c1)C(=O)O [L-dopa 4′-phosphate, (S)-2-amino-3-(3-hydroxy-4-(phosphonooxy)phenyl)propanoic acid] |  | Yes |  | stable without formation of L-dopa or carbidopa observed | >99% | >99% | stable without formation of L-dopa or carbidopa observed | increased solubility | stable without formation of L-dopa or carbidopa observed | stable without formation of L-dopa or carbidopa observed | Yes | stable without formation of L-dopa or carbidopa observed | 100 L/h | 0.75 | 0.9 | Yes | Yes | Yes | exposure of remaining L-dopa 4′-monophosphate as % of the levodopa exposure [1]: ~10%; % Remaining After One Day ([4]; pH 7.0): >99%; exposure of remaining L-dopa 4′-monophosphate as % of levodopa [12]: ~22%; T1/2 [16, 25]: rapidly dephosphorylated; T1/2 [17, 25]: rapidly dephosphorylated |

Reference: patent US20240024338A1, “CARBIDOPA AND L-DOPA PRODRUGS AND METHODS OF USE” (AbbVie Inc., priority 2016, published 2024)
